Measured values as given in patent US12351574B2, “Selective ligands for modulation of GIRK channels” (Northeastern University, priority 2018, dated 2025).

Molecular target: T1, GIRK1/4 (Homo sapiens, UniProt P48544+P48549)
T1 sequence (P48549 1-501): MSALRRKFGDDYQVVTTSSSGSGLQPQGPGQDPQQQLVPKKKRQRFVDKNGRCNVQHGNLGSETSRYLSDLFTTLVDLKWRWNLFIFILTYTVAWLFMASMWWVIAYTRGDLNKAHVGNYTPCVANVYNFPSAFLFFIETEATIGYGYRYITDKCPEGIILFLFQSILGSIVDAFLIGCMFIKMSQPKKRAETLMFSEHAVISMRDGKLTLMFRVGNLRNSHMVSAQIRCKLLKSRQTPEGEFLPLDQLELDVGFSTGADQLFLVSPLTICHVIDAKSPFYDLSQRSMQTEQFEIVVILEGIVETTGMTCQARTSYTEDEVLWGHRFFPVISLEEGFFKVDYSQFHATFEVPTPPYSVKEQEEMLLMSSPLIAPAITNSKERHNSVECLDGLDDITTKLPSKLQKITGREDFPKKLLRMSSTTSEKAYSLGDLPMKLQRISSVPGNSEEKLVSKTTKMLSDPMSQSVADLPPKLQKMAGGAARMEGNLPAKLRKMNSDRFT
T1 sequence (P48544 1-419): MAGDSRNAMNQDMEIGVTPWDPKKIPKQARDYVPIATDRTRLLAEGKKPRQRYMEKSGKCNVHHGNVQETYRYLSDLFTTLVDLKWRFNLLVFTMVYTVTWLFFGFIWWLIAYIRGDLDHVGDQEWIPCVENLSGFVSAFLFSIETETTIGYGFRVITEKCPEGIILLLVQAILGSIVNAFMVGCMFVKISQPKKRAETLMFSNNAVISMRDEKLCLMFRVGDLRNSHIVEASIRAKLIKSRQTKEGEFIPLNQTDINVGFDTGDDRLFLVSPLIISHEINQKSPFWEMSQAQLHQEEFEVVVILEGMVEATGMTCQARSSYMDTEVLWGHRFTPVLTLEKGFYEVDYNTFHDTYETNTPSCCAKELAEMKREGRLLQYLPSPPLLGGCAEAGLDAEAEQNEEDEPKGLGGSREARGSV
Experiment: thallium flux assay, cells expressing GIRK1/4
Format: cell-based
Design: expressed in transfected cells
Text: Previous studies have utilized the thallium flux Assay to test the effects of ML297 and related compounds in cells coexpressing GIRK1/2 and GIRK1/4. In order to fully investigate the selective activation of GAT compounds, the inventors also utilized this assay. […] To determine the differences between the thallium flux and TEVC assays, the inventors computationally tested whether the binding of selective compounds could affect the selectivity of the pore area. The Cα RMSF of the region between the M1 and M2 helices of the channel were calculated during the MD simulation with or without ML297 and the selective GAT compounds in the GIRK2/2^FD and GIRK4/4^FD systems (FIGS. 60A-60B). […] To further test this idea, the inventors compared the 10 μM GAT1508-induced thallium and potassium currents in oocytes expressing GIRK1/2 and GIRK1/4 by TEVC recording (FIG. 61B). […] In an effort to enhance the current, the TEVC recording was performed at a holding potential of −100 mV.

Row | activation of GIRK1/4 in thallium flux assay (in words) (concentration-response, FIG. 61A) | EC50 (thallium flux assay) [nM] | Compound
1 | also activated the cardiac heteromer | – | Cc1cc(NC(=O)Nc2ccc(Br)s2)n(-c2ccccc2)n1 [GAT1508, 1-(5-bromothiophen-2-yl)-3-(3-methyl-1-phenyl-1H-pyrazol-5-yl)urea]
2 | – | ~2890 | Cc1cc(NC(=O)Nc2ccc(F)c(F)c2)n(-c2ccccc2)n1 [ML297, reference compound]
